A short description of data set [1]: Apparent permeability coefficient (Papp) for apical to basolateral flux was determined in MadinDarby Canine Kidney cells. The data set is classed as ADME, Canis lupus familiaris. Particulars: dog, MDCK.
A short description of data set [2]: Oral bioavailability in rat (male Wistar). The data set is classed as ADME, organism-based. Particulars: in vivo.
A short description of data set [3]: Tested for the total clearance of the compound. The data set is classed as ADME, organism-based. Particulars: in vivo.
Data set [4] in a line: Tested for iv terminal half-life dosed as a solution in male Han Wistar rats. The data set is classed as ADME, organism-based. Particulars: rat, in vivo.
Data set [5] can be described thus: Steady state volume of distribution (Vsss) was determined. The data set is classed as ADME, organism-based. Particulars: in vivo; read-out: Vsss.
A short description of data set [6]: Partition coefficient (logP). The data set is classed as physicochemical. Particulars: octanol/water.
A short description of data set [7]: Tested for equilibrium solubility in fasted state-simulated intestinal fluid at pH 6.8. The data set is classed as ADME. Particulars: fasted state-simulated intestinal fluid (FS-SIF).

Converted amounts (≈) assume the structure as drawn.

As to `CCCC[C@H](NC(=O)OC(C(C)C)C(C)C)C(=O)C(=O)NCc1ccno1`, in data set [1], the Papp A→B was found to be 41 ×10⁻⁶ cm/s. Further, the bioavailability in data set [2] worked out at 32%. This compound also came in with a clearance in data set [3] of 29 mL/min/kg. The same compound had a half-life in data set [4] of 0.867 h. For the same compound, the Vd in data set [5] was 1.2 L/kg. In data set [6], this compound displayed a logP of 5. Also, in data set [7], the solubility (thermodynamic) is 63 µg/mL (≈ 165 µM).

`CCCC[C@H](NC(=O)OC(C(C)C)C(C)C)C(=O)C(=O)NCc1nnco1`: the apical-to-basolateral permeability (Papp A→B) in data set [1] stood at 51 ×10⁻⁶ cm/s. In data set [2], this compound had a bioavailability of 16%. The compound also yielded a clearance in data set [3] of 33 mL/min/kg. The compound further displayed a half-life in data set [4] of 0.35 h. Moreover, the Vd in data set [5] was determined as 0.98 L/kg. The logP in data set [6] was determined as 3.4. In data set [7], the thermodynamic solubility was 150 µg/mL (≈ 392 µM).

Turning to `CCCC[C@H](NC(=O)OC(C(C)C)C(C)C)C(=O)C(=O)NCc1ccccn1`, the apical-to-basolateral permeability (Papp A→B) in data set [1] came out at 51 ×10⁻⁶ cm/s. Moreover, the bioavailability in data set [2] turned out to be 10%. The compound further gave a clearance in data set [3] of 5.2 mL/min/kg. The same compound had a half-life in data set [4] of 1.28 h. In data set [5], the Vd came to 0.24 L/kg. The solubility (thermodynamic) in data set [7] is 28 µg/mL (≈ 71.5 µM).

For the compound `CCCC[C@H](NC(=O)OC(C(C)C)C(C)C)C(=O)C(=O)N[C@H](C)c1ccccc1`, in data set [1], the Papp A→B was 5.7 ×10⁻⁶ cm/s. Also, in data set [2], the bioavailability turned out to be 3.1%. For the same compound, the clearance in data set [3] is 8.7 mL/min/kg. Besides, in data set [5], the Vd worked out at 1.9 L/kg. Besides, in data set [6], the lipophilicity (logP) came out at 7.3. In addition, in data set [7], the thermodynamic solubility is 12 µg/mL (≈ 29.7 µM).

On to `CCCC[C@H](NC(=O)OC(C(C)C)C(C)C)C(=O)C(=O)N[C@H]1CCCNC1=O`, for which, in data set [1], the apparent permeability from apical to basolateral (Papp A→B) was determined as 31 ×10⁻⁶ cm/s. The bioavailability in data set [2] was found to be 20%. The compound further registered a clearance in data set [3] of 44 mL/min/kg. This compound showed a half-life in data set [4] of 3.67 h. Further, in data set [5], the Vd came out at 1.6 L/kg. For the same compound, in data set [6], the log partition coefficient (logP) is 4.4. For the same compound, in data set [7], the solubility (thermodynamic) is 350 µg/mL (≈ 880 µM).

Compound `CCCC[C@H](NC(=O)OC(C(C)C)C(C)C)C(=O)C(=O)NCc1ccncc1` yielded a bioavailability in data set [2] of 5.2%. For the same compound, the clearance in data set [3] was found to be 7.1 mL/min/kg. For the same compound, the half-life in data set [4] was 4 h. The Vd in data set [5] worked out at 0.09 L/kg. Also, the solubility (thermodynamic) in data set [7] was 62 µg/mL (≈ 158 µM).

Compound `CNC(=O)NCCCC[C@H](NC(=O)OC(C(C)C)C(C)C)C(=O)C(=O)N[C@H](C)c1ccccc1` gave a bioavailability in data set [2] of 10%. This compound also came in with a clearance in data set [3] of 24 mL/min/kg. Besides, the half-life in data set [4] stood at 4.33 h. The Vd in data set [5] was 1.5 L/kg. In addition, in data set [6], the lipophilicity (logP) is 5.5. The same compound returned a thermodynamic solubility in data set [7] of 32 µg/mL (≈ 67.1 µM).

Consider `CCCC[C@H](NC(=O)OC(C(C)C)C(C)C)C(=O)C(=O)NCc1cncs1`, for which the Papp A→B in data set [1] came to 48 ×10⁻⁶ cm/s. The same compound registered a bioavailability in data set [2] of 55%. In data set [3], this compound registered a clearance of 28 mL/min/kg. This compound also yielded a half-life in data set [4] of 2.5 h. The Vd in data set [5] is 1.3 L/kg. The log partition coefficient (logP) in data set [6] turned out to be 5.3. The compound also had a thermodynamic solubility in data set [7] of 51 µg/mL (≈ 128 µM).

The record behind these values is ChEMBL document CHEMBL1148252, “Orally bioavailable small molecule ketoamide-based inhibitors of cathepsin K” (Bioorg Med Chem Lett, 2004).
